The numbers were not newly measured in paper PMC11599114 (Viruses, 2024), which cites them from elsewhere.

Where two headings read alike, the source gives them in different places.

In one series the test system is INFVA. Details: method as in AVPdb. The conditions noted are these: ref AVPdb; for IC50: virus entry.
The next series has as its system HSV-1. The conditions noted are these: HSV-1, Vero.
Another series has as its system Measles virus(MeV). The conditions noted are these: VERO/hSLAM.
For a further series, the system named is SARS-CoV-2. The conditions noted are these: SARS-CoV-2, Vero.
In series [1] the test system is influenza virus(H1N1,VR-1894). The conditions noted are these: H1N1 VR-1894, MDKC.
For series [2], the system named is human parainfluenza virus 3 (HPIV3). Details: method as in ref 16973588. The conditions noted are these: HPIV3 infection, HeLa.
The test system is the same in series [3]. Details: method as in ref 16973588. The conditions noted are these: HPIV3 fusion, HeLa.
The test system of a further series is influenza A virus(H1N1). On the set-up: method as in 2 sources. As to conditions: A(H1N1), MDCK.
The next series has as its system HCoV-OC43. The conditions noted are these: HCoV-OC43, Vero.
A further series relates to HSV-2. The conditions noted are these: HSV-2, Vero.
The test system of the next series is HCoV-229E. As to conditions: Vero.

Consider AETVESCLAKPHTEN [AVP0967], for which the IC50 (in general, the concentration that inhibits the measured activity by half) with INFVA is 66 µM.
For the substance AGDDQGLDKCVPNSKEK [AVP1195], the EC50 (commonly the concentration that produces a half-maximal response) with INFVA (fusion) was 3.7 ± 0.35 pM.
Take AKIXQSLXFIXKSDXLLHNV [DRAVPe00631]: in the series with RSV (ref DRAVP), the IC50/EC50 is 1.16 ± 0.08 µM.
As for AVASVPRARGKYWWG [AVP0965], the IC50 in the series with INFVA is 44 µM.
Consider “AVSKVLHLEGEVNKISALLSTNKAVVSLSNGVSVLTSKVLDLDNYIDKQLLPIVNK [AVP1971]”, for which, in the series with RSV (fusion, ref AVPdb), the IC50/EC50 was 1.68 µM.
Regarding CFVPWFSKFlXRIL [DRAVPe00391], the IC90 (usually the concentration needed for an effect of 90%) with HSV-1 was 2.19 µM; in the series with Measles virus(MeV), 31.1 µM; in the series on SARS-CoV-2 it was 1.89 µM; in series [1] it was 5.89 µM.
For CGGFVPWFSKFlXRIL [DRAVPe00392], the 90% effect concentration (IC90) in the series with HSV-1 was 8.21 µM; in the series with Measles virus(MeV), 49.9 µM; in the series on SARS-CoV-2, 10.2 µM; in series [1], 9.9 µM.
As for “DASISQVNEKINQSLAFIRKSDELLHNVNAGKSTT [AVP0142]”, the IC50/EC50 in the series with RSV (fusion, ref AVPdb) was 8 µM.
In the case of “DEFDASISQVNEKINQSLAFIRKSDELLHNVNAGK [AVP0139]”, the IC50/EC50 with RSV (fusion, ref AVPdb) was 12 µM.
Consider DFRRLPGAFWQLRQP [AVP0966], for which the IC50 in the series on INFVA is 52 µM.
Take “DITLNNSVALDPIDISIELNKAKSDLEESKEWIRRSNQKLDSIGN [DRAVPe01310]”: the IC50 in series [2] and in series [3] was 0.5 µM each time.
Take “DPLVFPSDEFDASISQVNEKINQSLAFIRKSDELL [AVP0132]”: the IC50/EC50 in the series on RSV (fusion, ref AVPdb) was 8 µM.
With EAIXQSLXFIXKSDXLLHNV [DRAVPe00632], the IC50/EC50 in the series on RSV (ref DRAVP) is 0.60 ± 0.02 µM.
For EEQAKTFLDK [DRAVPe01627], the inhibition – broadly, the percentage by which the read-out fell short of the control – in the series with SARS-CoV (100 µM) was 25%.
On to “EEQAKTFLDKFNHEAEDLFYQSSGLGKGDFR [DRAVPe01632]”, for which the IC50 in the series on SARS-CoV was 0.1 µM.
On to “EFDASISQVNEKINQSLAFIRKSDELLHNVNAGKS [AVP0140]”, for which the IC50/EC50 in the series with RSV (fusion, ref AVPdb) is 13 µM.
As for EKAXQSLXFIXKSDXLLHNV [DRAVPe00633], the IC50/EC50 in the series with RSV (ref DRAVP) is 1.30 ± 0.89 µM.
EKIAQSLXFIRXSDXLLHXV [DRAVPe00629]: in the series on RSV (ref DRAVP), the IC50/EC50 is 20.41 ± 2.4 µM.
As for EKINQSLAFIRKSDELLHNV [DRAVPe00623], the IC50/EC50 in the series on RSV (ref DRAVP) is over 50 µM.
Turning to EKINQSLXFIAXSDXLLHXV [DRAVPe00630], in the series with RSV (ref DRAVP), the IC50/EC50 is 175 ± 0.00 µM.
As for EKIXASLXFIXKSDXLLHNV [DRAVPe00634], the IC50/EC50 with RSV (ref DRAVP) is 0.28 ± 0.43 µM.
In the case of EKIXQALXFIXKSDXLLHNV [DRAVPe00635], in the series with RSV (ref DRAVP), the IC50/EC50 was 0.66 ± 0.26 µM.
Turning to EKIXQSAXFIXKSDXLLHNV [DRAVPe00636], in the series on RSV (ref DRAVP), the IC50/EC50 was 0.95 ± 0.53 µM.
Turning to EKIXQSLXAIXKSDXLLHNV [DRAVPe00637], the IC50/EC50 with RSV (ref DRAVP) was 1.39 ± 0.10 µM.
As for EKIXQSLXFAXKSDXLLHNV [DRAVPe00638], the IC50/EC50 in the series with RSV (ref DRAVP) was 10.44 ± 2.97 µM.
Regarding EKIXQSLXFIXASDXLLHNV [DRAVPe00639], the IC50/EC50 in the series with RSV (ref DRAVP) was 10.93 ± 13.90 µM.
Regarding EKIXQSLXFIXKADXLLHNV [DRAVPe00640], the IC50/EC50 with RSV (ref DRAVP) was 82.04 ± 1.56 µM.
For EKIXQSLXFIXKSAXLLHNV [DRAVPe00641], the IC50/EC50 in the series on RSV (ref DRAVP) is 1.10 ± 0.08 µM.
For the substance EKIXQSLXFIXKSDXALHNV [DRAVPe00642], the IC50/EC50 in the series with RSV (ref DRAVP) was 0.88 ± 0.06 µM.
On to EKIXQSLXFIXKSDXLLANV [DRAVPe00643], for which the IC50/EC50 in the series with RSV (ref DRAVP) was 0.52 ± 0.07 µM.
EKIXQSLXFIXKSDXLLHAV [DRAVPe00644]: the IC50/EC50 in the series with RSV (ref DRAVP) is 2.71 ± 2.93 µM.
For the substance EKIXQSLXFIXKSDXLLHNA [DRAVPe00645], in the series on RSV (ref DRAVP), the IC50/EC50 was 0.60 ± 0.03 µM.
On to EXINXSLXFIRXSDALLHNV [DRAVPe00646], for which, in the series on RSV (ref DRAVP), the IC50/EC50 was 1.00 ± 0.03 µM.
For EXINXSLXFIRXSDELLHNV [DRAVPe00626], the IC50/EC50 with RSV (ref DRAVP) was 0.59 ± 0.13 µM.
Take “FDASISQVNEKINQSLAFIRKSDELLHNVNAGKST [AVP0143]”: the IC50/EC50 in the series with RSV (fusion, ref AVPdb) was 0.051 µM.
Consider FFVIFYRRKK [AVP1808], for which, in the series with INFVA, the IC50 is 1.48 µM.
Turning to FINGRWDSQCHRFSNGAIACA [DRAVPe01800], the IC50 in the series with influenza A virus(H1N1) is 6.6 µg/mL.
For “FPSDEFDASISQVNEKINQSLAFIRKSDELLHNVN [AVP0136]”, in the series on RSV (fusion, ref AVPdb), the IC50/EC50 was 8 µM.
FVPWFSKFlGRIL [DRAVPe00377]: the IC90 in the series on HSV-1 was 18.7 µM; with SARS-CoV-2, 12.1 µM; in the series on HCoV-OC43, 15 µM; with HSV-2, 16.7 µM; in the series on HCoV-229E it was 30.1 µM.
